We go through two compounds from US8106029B2, “Use of A2A adenosine receptor agonists” (Gilead Sciences, Inc., priority 2004, dated 2012).

Values after ≈ are worked out from the molar mass of the structure shown. Where two headings read alike, the source gives them in different places.

For data set [1], the system named is A2A-adenosine receptors. The following applies: average of the 12 assays.
A further data set deals with human neutrophils. The data set can be described thus: Superoxide anion production, human neutrophils. It counts as cell-based. The following applies: Neutrophil, mean ± SE, read-out: Superoxide anion Production, potency.
Data set [2] is described as follows: Example 2: PD model of average coronary peak flow velocity (APV), intracoronary Doppler flow wire. It is filed as in vivo, human. The procedure: (§1) The purpose of this study was to investigate the pharmacokinetics (PK) and pharmacodynamics (PD) of regadenoson in subjects undergoing clinically indicated cardiac catheterization.
(§2) Thirty-six male and female subjects undergoing clinically indicated coronary angiography were studied. […] ECG, average coronary peak flow velocity (APV), measured using intracoronary Doppler flow wire, blood pressure (BP), and heart rate (HR) were continuously monitored for up to 3 hours post-dose. Occurrence of adverse events (AEs) was monitored for approximately 3 hours post dosing and via telephone approximately 14 days later. A population approach was utilized in applying PK and PD models to the plasma concentration, APV, and HR data. The potential influence of various covariates on PK and PD model parameters was investigated.

The nature of data set [3]: Example 1: tolerability / maximum tolerated dose in healthy male subjects. It is filed as in vivo, human. The note with it: for MTD at 24 h: male, human, in vivo, intravenous. The procedure:
(§3) The purpose of this study was to investigate the pharmacokinetics (PK), pharmacodynamics (PD), and the maximum tolerated dose of regadenoson in healthy human subjects.
(§4) Thirty-six healthy, male subjects were included in the study. […] ECG, blood pressure (BP), and heart rate (HR) were recorded for up to 24 hours post-dose. Adverse events (AE) were monitored for 24 hours post dose and via telephone 7 days later. A population approach was utilized in applying a three-compartmental PK model to the plasma concentration-time and a Michaelis-Menten model to the time-course of heart rate. The potential influence of various covariates on PK and PD model parameters was investigated.

Data set [4] has as its target T1, A2A-adenosine receptors (Rattus norvegicus, UniProt P30543).
T1 construct: rat brain striatal membranes; from tissue; host or cells: rat brain striatum membranes
As to the kind of experiment: Membrane binding, displacement of [3H]-ZM241385, rat brain striatal membranes. The note with it: Rat striatum, mean ± SE, read-out: Membrane Binding, affinity [Ki]. For orientation: Displacement assays read how much labelled ligand stays bound in the presence of the test substance.

Data set [5] relates to human platelets. As to the kind of experiment: Cell calcium mobilization, human platelets. It counts as cell-based. The note with it: Platelet, mean ± SE, read-out: Cell calcium Mobilization, potency. (In general: Calcium assays in cells follow changes in intracellular calcium, usually with a dye or a luminescent sensor.)
Data set [6] can be described thus: Example 2: population PK in subjects undergoing cardiac catheterization. It counts as in vivo. The note with it: both sexes, human, plasma. On the procedure: as §1, §2
The target in data set [7] is T1, A2A-adenosine receptors. As to the kind of experiment: Membrane binding, displacement of [3H]-CG-S21680, rat brain striatal membranes. The note with it: Rat striatum, mean ± SE, read-out: Membrane Binding, affinity [Ki].
Data set [8] in a line: Example 2: PD model (Michaelis-Menten) of heart rate. It counts as in vivo, human. The following applies: catheterization subjects. On the procedure: as §1, §2
Data set [9] in a line: Example 1: population PK after single IV bolus in healthy male subjects. It is filed as in vivo. The following applies: human. The procedure: as §3, §4
The nature of another data set: Solubility in water. It is filed as physicochemical. The procedure:
Therefore, regadenoson can be dissolved and administered in water so long as the desired weight amount of regadenoson can be administered in an acceptable volume. For example, a preferred dose of about 400 micrograms can be administered in 8 mL of water.

Data set [10] in a line: Example 1: PD model (Michaelis-Menten) of heart rate time-course in healthy male subjects. It is filed as in vivo, human. On the procedure:
as §3, §4

Data set [11] concerns human platelets. The data set can be described thus: Platelet aggregation. The following applies: mean ± SE, read-out: Platelet Aggregation, potency. It is filed as cell-based.

T1 sequence (P30543 whole entry): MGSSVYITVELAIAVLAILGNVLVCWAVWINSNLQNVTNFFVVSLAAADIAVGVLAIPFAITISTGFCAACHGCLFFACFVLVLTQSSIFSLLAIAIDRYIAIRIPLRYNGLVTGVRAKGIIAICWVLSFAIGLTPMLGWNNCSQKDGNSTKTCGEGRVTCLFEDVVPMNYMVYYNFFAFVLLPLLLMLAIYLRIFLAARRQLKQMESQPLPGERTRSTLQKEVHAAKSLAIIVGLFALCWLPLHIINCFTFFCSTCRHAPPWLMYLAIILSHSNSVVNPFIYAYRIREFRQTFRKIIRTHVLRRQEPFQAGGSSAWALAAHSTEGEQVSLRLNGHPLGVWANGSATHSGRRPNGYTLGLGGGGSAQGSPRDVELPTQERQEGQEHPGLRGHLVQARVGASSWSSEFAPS

Turning to `CCNC(=O)[C@H]1O[C@@H](n2cnc3c(N)nc(NCCc4ccc(CCC(=O)O)cc4)nc32)[C@H](O)[C@@H]1O` [CGS 21680], the “values of EC50 lower than for regadenoson, on average” value in the data set with A2A-adenosine receptors [1] is 13 fold.

Regarding `CNC(=O)c1cnn(-c2nc(N)c3ncn([C@@H]4O[C@H](CO)[C@@H](O)[C@H]4O)c3n2)c1` [regadenoson, (1-{9-[(4S,2R,3R,5R)-3,4-dihydroxy-5-(hydroxymethyl)oxolan-2-yl]-6-aminopurin-2-yl}pyrazol-4-yl)-N-methylcarboxamide], the IC50 in the data set with human neutrophils came to 328 ± 32 nM; in the data set on human platelets [5], 108 ± 8 nM; in the data set on human platelets [11], 437 ± 44 nM. For the same compound, the “distribution rate constant from the plasma to the effect site” value in [2] (APV PD model) turned out to be 4 min⁻¹. In addition, the EC50 in data set [2] (Homo sapiens, catheterization subjects, read-out: potency (concentration that causes half maximal effect) on APV) was found to be 0.0299 µg/mL (≈ 0.0766 µM); in [8] (Homo sapiens, read-out: potency on HR), 0.0275 µg/mL (≈ 0.0704 µM); in data set [10] (Homo sapiens, read-out: concentration causing half-maximal increase in HR (potency)), 0.0124 µg/mL (≈ 0.0318 µM). Besides, the “maximal increase in APV” value in [2] (model estimate, effect compartment) is 105 cm/s. In addition, in data set [3] (healthy male subjects, IV bolus 0.1 to 30 μg/kg), the “adverse events, severity” value was “mild to moderate”. The MTD at 24 h in [3] (standing, dose-limiting syncope or near syncope, read-out: maximum tolerated dose, standing position) was determined as 0.01 mg/kg; in data set [3] (supine, read-out: maximum tolerated dose, supine position), 0.02 mg/kg. Besides, in [3] (standing), the “dose generally well tolerated, standing patients” value was “up to 10 μg/kg”. Moreover, the “dose generally well tolerated, supine patients” value in [3] (supine) is given as “up to 20 μg/kg”. For the same compound, the Ki (in general, a dissociation constant, usually derived from enzyme kinetics or from competition with a known ligand) at A2A-adenosine receptors [4] came out at 318 ± 5 nM; on A2A-adenosine receptors [7] it was 43 ± 3 nM. Moreover, the Vd in [6] (IV bolus, read-out: volume of distribution) was found to be 68.1 L; in data set [9] (plasma, healthy male subjects, IV bolus, read-out: volume of distribution), 83.3 L. The clearance (as a rule, the volume of plasma or blood freed of the substance per unit of time) in [6] (single IV bolus 10 to 500 μg, three-compartment model) is 498 mL/min; in [9] (plasma, healthy male subjects, single IV bolus 0.1 to 30 μg/kg, three-compartmental model, read-out: population value of clearance (CL) (converted)), 677 mL/min. Moreover, in data set [8] (model estimate), the “maximum increase in the HR” value was 41 bpm. In [9] (male, in vivo, iv), the “renal clearance as share of the total clearance” value turned out to be 57%. Moreover, in the data set “Solubility in water”, the solubility (commonly the concentration that dissolves in the medium under given conditions) was roughly 50 µg/mL (≈ 128 µM). Moreover, in data set [10] (healthy male subjects, model estimate), the “maximal increase in HR” value is 76 bpm.
